# Experimental data taken from patent US12338243B2, “P2X7 modulators” (JANSSEN PHARMACEUTICA NV, priority 2014, dated 2025).
# pIC50, pKi: −log10 of the molar value.
# Legend:
# P2X7 [1] = target: T1, P2X7 (Homo sapiens, UniProt Q99572); test: Ca2+ flux (FLIPR) in 1321N1 cells expressing recombinant human P2X7 channel; assay type: cell-based; set-up: expressed in transfected cells; host or cells: 1321N1 cells; settings: 250 μM BzATP
# T1 sequence (Q99572 1-595): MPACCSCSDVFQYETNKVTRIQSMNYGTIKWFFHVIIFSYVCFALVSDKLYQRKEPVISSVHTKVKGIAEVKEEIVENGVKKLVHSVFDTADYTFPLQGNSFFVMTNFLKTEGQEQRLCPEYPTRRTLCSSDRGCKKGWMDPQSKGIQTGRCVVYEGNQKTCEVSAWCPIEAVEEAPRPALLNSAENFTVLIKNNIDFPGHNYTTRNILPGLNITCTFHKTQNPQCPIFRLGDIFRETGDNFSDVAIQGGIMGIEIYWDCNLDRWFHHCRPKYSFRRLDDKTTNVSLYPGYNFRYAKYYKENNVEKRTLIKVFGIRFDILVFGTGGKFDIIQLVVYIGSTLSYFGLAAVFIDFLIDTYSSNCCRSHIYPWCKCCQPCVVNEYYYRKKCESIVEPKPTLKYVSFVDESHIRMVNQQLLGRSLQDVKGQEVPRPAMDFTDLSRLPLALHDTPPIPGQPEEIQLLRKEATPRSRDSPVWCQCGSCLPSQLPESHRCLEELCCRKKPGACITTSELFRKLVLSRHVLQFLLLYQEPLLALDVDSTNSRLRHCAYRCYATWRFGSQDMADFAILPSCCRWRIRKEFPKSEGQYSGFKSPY
# Description: P2X7 Antagonism in Recombinant Human P2X7 Cells or Recombinant Rat P2X7 Cells: (a) Ca^2+ Flux and (b) Radioligand Binding
# (a) Ca^2+ flux: 1321N1 cells expressing the recombinant human or rat P2X7 channel was cultured in HyQ DME/(HyClone/Dulbecco's Modified Eagle Medium) high glucose supplemented with 10% Fetal Bovine Serum (FBS) and appropriate selection marker. Cells were seeded at a density of 25000 cells/well (96-well clear bottom black walled plates) in 100 μl volume/well. On the day of the experiment, cell plates were washed with assay buffer, containing (in mM): 130 NaCl, 2 KCl, 1 CaCl2), 1 MgCl2, 10 HEPES, 5 glucose; pH 7.40 and 300 mOs. After the wash, cells were loaded with the Calcium-4 dye (Molecular Device) and incubated in the dark for 60 minutes. Test compounds were prepared at 250× the test concentration in neat DMSO. Intermediate 96-well compound plates were prepared by transferring 1.2 μL of the compound into 300 μL of assay buffer. A further 3× dilution occurred when transferring 50 μL/well of the compound plate to 100 μL/well in the cell plate. Cells were incubated with test compounds and dye for 30 minutes. […] The fluorescence change was measured 180 seconds after adding the agonist.
# rat P2X7 = target: T2, rat P2X7 (Rattus norvegicus, UniProt Q64663); test: Ca2+ flux (FLIPR) in 1321N1 cells expressing recombinant rat P2X7 channel; settings: FLIPR (rat) IC50 (μM), 250 μM BzATP
# T2 sequence (Q64663 1-595): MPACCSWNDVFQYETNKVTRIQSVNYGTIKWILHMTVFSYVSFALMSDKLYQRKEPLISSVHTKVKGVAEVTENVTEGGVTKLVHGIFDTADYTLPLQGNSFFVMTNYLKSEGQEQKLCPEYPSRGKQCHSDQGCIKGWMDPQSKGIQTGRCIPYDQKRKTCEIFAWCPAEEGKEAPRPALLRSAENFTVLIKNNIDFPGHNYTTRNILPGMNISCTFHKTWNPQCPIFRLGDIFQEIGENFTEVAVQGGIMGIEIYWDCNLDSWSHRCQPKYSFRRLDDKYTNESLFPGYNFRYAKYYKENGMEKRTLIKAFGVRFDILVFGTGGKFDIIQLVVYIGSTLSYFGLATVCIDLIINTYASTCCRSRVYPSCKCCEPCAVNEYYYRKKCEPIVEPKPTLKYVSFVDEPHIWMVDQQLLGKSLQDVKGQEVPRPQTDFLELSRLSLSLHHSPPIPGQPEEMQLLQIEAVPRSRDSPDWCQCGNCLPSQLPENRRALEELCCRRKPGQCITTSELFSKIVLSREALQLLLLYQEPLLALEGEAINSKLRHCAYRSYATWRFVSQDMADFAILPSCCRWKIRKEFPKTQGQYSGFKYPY
# P2X7 [2] = target: T1, P2X7; test: Radioligand binding, human P2X7-1321N1 cell membranes, tritiated A-804598
pIC50 (P2X7 [1]),IC50 (rat P2X7),pKi (P2X7 [2]),Compound
6.32,> 10 µM,7.30,"O=C(c1ccc(Cl)cc1Cl)N1CCn2c(nnc2C(F)(F)F)[C@H]1c1ccccc1 [Example 120, (R)-(2,4-dichlorophenyl)(8-phenyl-3-(trifluoromethyl)-5,6-dihydro-[1,2,4]triazolo[4,3-a]pyrazin-7(8H)-yl)methanone]"
7.52,1.02 µM,7.40,"Cc1nnc2n1CCN(C(=O)c1cccc(C(F)(F)F)c1Cl)C2c1ccccn1 (racemic) [Example 85, (±)-(2-chloro-3-(trifluoromethyl)phenyl)(3-methyl-8-(pyridin-2-yl)-5,6-dihydro-[1,2,4]triazolo[4,3-a]pyrazin-7(8H)-yl)methanone]"
6.76,4.59 µM,6.60,"CC1c2nnc(-c3ccc(Cl)cc3)n2CCN1C(=O)c1cccc(C(F)(F)F)c1Cl (stereo not drawn) [Example 37, (2-chloro-3-(trifluoromethyl)phenyl)(3-(4-chlorophenyl)-8-methyl-5,6-dihydro-[1,2,4]triazolo[4,3-a]pyrazin-7(8H)-yl)methanone]"
4.89,> 10 µM,,"CC1CN(C(=O)c2cccc(Cl)c2Cl)Cc2nnc(-c3ccccn3)n21 (stereo not drawn) [Example 34, (2,3-dichlorophenyl)(5-methyl-3-(pyridin-2-yl)-5,6-dihydro-[1,2,4]triazolo[4,3-a]pyrazin-7(8H)-yl)methanone]"
< 5.00,10.7 µM,,"C[C@H]1Cn2c(nnc2-c2cccc(F)c2)CN1C(=O)c1cccc(Cl)c1Cl [Example 41, (S)-(2,3-dichlorophenyl)(3-(3-fluorophenyl)-6-methyl-5,6-dihydro-[1,2,4]triazolo[4,3-a]pyrazin-7(8H)-yl)methanone]"
5.42,> 10 µM,,"Cc1nnc2n1CCN(C(=O)c1cccc(Cl)c1Cl)[C@H]2c1ccccn1 [Example 113, (S)-(2,3-dichlorophenyl)(3-methyl-8-(pyridin-2-yl)-5,6-dihydro-[1,2,4]triazolo[4,3-a]pyrazin-7(8H)-yl)methanone]"
< 5.00,> 10 µM,,"CC1c2nnc(-c3ccc(C(F)(F)F)cc3)n2CCN1C(=O)c1cccc(C(F)(F)F)c1Cl (stereo not drawn) [Example 35, (2-chloro-3-(trifluoromethyl)phenyl)(8-methyl-3-(4-(trifluoromethyl)phenyl)-5,6-dihydro-[1,2,4]triazolo[4,3-a]pyrazin-7(8H)-yl)methanone]"
5.61,9.44 µM,,"C[C@H]1Cn2c(nnc2-c2ccccc2F)CN1C(=O)c1cccc(C(F)(F)F)c1Cl [Example 39, (S)-(2-chloro-3-(trifluoromethyl)phenyl)(3-(2-fluorophenyl)-6-methyl-5,6-dihydro-[1,2,4]triazolo[4,3-a]pyrazin-7(8H)-yl)methanone]"
6.04,19.6 µM,,"O=C(c1ccc(F)cc1Cl)N1CCn2c(nnc2C(F)(F)F)[C@H]1c1ccccc1 [Example 118, (R)-(2-chloro-4-fluorophenyl)(8-phenyl-3-(trifluoromethyl)-5,6-dihydro-[1,2,4]triazolo[4,3-a]pyrazin-7(8H)-yl)methanone]"
< 5.00,> 10 µM,,"O=C(c1cccc(C(F)(F)F)c1Cl)N1CCn2c(C(F)F)nnc2[C@@H]1c1ccccc1 [Example 109, (S)-(2-chloro-3-(trifluoromethyl)phenyl)(3-(difluoromethyl)-8-phenyl-5,6-dihydro-[1,2,4]triazolo[4,3-a]pyrazin-7(8H)-yl)methanone]"
5.91,> 10 µM,,COc1ccc(-c2nnc3n2C[C@H](C)N(C(=O)c2cccc(C(F)(F)F)c2Cl)C3)nc1 [Example 71]
< 5.00,> 10 µM,,"O=C(c1cccc(Cl)c1Cl)N1CCn2c(C(F)F)nnc2[C@@H]1c1ccccc1 [Example 111, (S)-(2,3-dichlorophenyl)(3-(difluoromethyl)-8-phenyl-5,6-dihydro-[1,2,4]triazolo[4,3-a]pyrazin-7(8H)-yl)methanone]"
< 5.00,> 10 µM,,"CC1Cn2c(nnc2C(F)(F)F)C(c2ccccc2)N1C(=O)c1cccc(C(F)(F)F)c1Cl (racemic) [Example 130, (±)-(2-chloro-3-(trifluoromethyl)phenyl)(6-methyl-8-phenyl-3-(trifluoromethyl)-5,6-dihydro-[1,2,4]triazolo[4,3-a]pyrazin-7(8H)-yl)methanone]"
5.13,3.78 µM,,"C[C@H]1Cn2c(nnc2-c2ccc(C(F)(F)F)c(F)c2)CN1C(=O)c1cccc(Cl)c1Cl [Example 28, (S)-(2,3-dichlorophenyl)(3-(3-fluoro-4-(trifluoromethyl)phenyl)-6-methyl-5,6-dihydro-[1,2,4]triazolo[4,3-a]pyrazin-7(8H)-yl)methanone]"
5.59,2.42 µM,,"C[C@H]1Cn2c(nnc2-c2cccc(F)c2F)CN1C(=O)c1ccc(F)c(Cl)c1Cl [Example 46, (S)-(2,3-dichloro-4-fluorophenyl)(3-(2,3-difluorophenyl)-6-methyl-5,6-dihydro-[1,2,4]triazolo[4,3-a]pyrazin-7(8H)-yl)methanone]"
5.41,1.46 µM,,"C[C@H]1Cn2c(nnc2-c2cccc(F)c2F)CN1C(=O)c1cccc(Cl)c1Cl [Example 44, (S)-(2,3-dichlorophenyl)(3-(2,3-difluorophenyl)-6-methyl-5,6-dihydro-[1,2,4]triazolo[4,3-a]pyrazin-7(8H)-yl)methanone]"
4.93,> 10 µM,,"O=C(c1ccc(F)c(Cl)c1Cl)N1CCn2c(nnc2C(F)(F)F)[C@@H]1c1ccccc1 [Example 125, (S)-(2,3-dichloro-4-fluorophenyl)(8-phenyl-3-(trifluoromethyl)-5,6-dihydro-[1,2,4]triazolo[4,3-a]pyrazin-7(8H)-yl)methanone]"
6.36,2.16 µM,,"O=C(c1cccc(C(F)(F)F)c1Cl)N1CCn2c(C3CCC3)nnc2[C@@H]1c1ccccc1 [Example 94, (S)-(2-chloro-3-(trifluoromethyl)phenyl)(3-cyclobutyl-8-phenyl-5,6-dihydro-[1,2,4]triazolo[4,3-a]pyrazin-7(8H)-yl)methanone]"
5.42,9.93 µM,,"CCc1nnc2n1CCN(C(=O)c1cccc(C(F)(F)F)c1Cl)[C@H]2c1ccccc1 [Example 87, (S)-(2-chloro-3-(trifluoromethyl)phenyl)(3-ethyl-8-phenyl-5,6-dihydro-[1,2,4]triazolo[4,3-a]pyrazin-7(8H)-yl)methanone]"
5.78,0.637 µM,,"C[C@H]1Cn2c(nnc2-c2ccc(F)c(F)c2)CN1C(=O)c1cccc(C(F)(F)F)c1Cl [Example 48, (S)-(2-chloro-3-(trifluoromethyl)phenyl)(3-(3,4-difluorophenyl)-6-methyl-5,6-dihydro-[1,2,4]triazolo[4,3-a]pyrazin-7(8H)-yl)methanone]"
5.26,> 10 µM,,"O=C(c1cccc(C(F)(F)F)c1Cl)N1CCn2c(nnc2C(F)(F)F)[C@@H]1c1ccccc1 [Example 98, (S)-(2-chloro-3-(trifluoromethyl)phenyl)(8-phenyl-3-(trifluoromethyl)-5,6-dihydro-[1,2,4]triazolo[4,3-a]pyrazin-7(8H)-yl)methanone]"
